Earlier results in patent US10272261B2, “Methods and compositions for treating ocular glaucoma” (Massachusetts Eye and Ear Infirmary, priority 2004, dated 2019).

Tested on: pigmented rabbits
Conditions: pigmented rabbits compared with albino rabbits; cited from earlier work

## chloro-aluminum sulfonated phthalocyanine [CASPc]
  duration of IOP reduction by ciliary body PDT: lasted a relatively shorter period than that of albino rabbits
